Assay results from patent US9878984B2, “Anti-cancer compounds” (NORTHWESTERN UNIVERSITY, priority 2008, dated 2018).
“Also recorded” adds a separate entry of the source.

Legend:
Assay type in all cases: cell-based, human
HeLa cells [1] = experiment: Transwell invasion assay; settings: [GI99%], matrigel, 20 hr
Protocol: Transwell Invasion Assay: HeLa cells were plated at 250,000 per 35 mm well and allowed to attach for 8 hr. The cells were washed with PBS and then treated for 4 hr with the [GI99%] of each compound (or 1% DMSO—vehicle control) in serum free media to decrease the number of invading cells in the beginning of the experiment due to a preliminary lack of drug exposure. The cells were then trypsinized and counted by trypan blue exclusion with a hemacytometer (Sigma—St. Louis, Mo.). Eight micron pore size control well inserts for 12 well plates (BD Biosciences) were coated with 100 μL 1 mg/mL matrigel (Sigma—St. Louis, Mo.) and allowed to solidify at room temperature for 1 hr. The excess matrigel was aspirated and the inserts were gently washed with PBS. The cells were seeded at a density of 300,000 per insert well in a volume of 500 μL serum free media containing a derivative or vehicle. The inserts were then placed in wells containing 700 μL serum free media with the respective compound. After 20 hr the cells on the top of the membranes were gently removed with a cotton swab, the membranes then were fixed in methanol for 1 min, stained in Gills No. 3 Hematoxylin (Sigma—St. Louis, Mo.) for 5 min, rinsed in tap water, and allowed to dry overnight. The membranes were excised, mounted on slides, and the cells were counted under the 40× objective of a bright field microscope. The data are expressed as the average total number of invading cells counted in 20 fields of each membrane, as standardized to the vehicle control, from six experiments.
Effect of derivatives on the malignant phenotype—invasion assay: If A1-A9 have differential targets, DNA binding specificity, or downstream effects they may differentially alter the malignant behavior of cells. Also, anti-cancer compounds can be efficacious against tumors in other ways besides inhibiting growth and inducing death of cancer cells; they can also alter the behavior of malignant cells. Therefore, the ability of A1-A9 and amonafide to alter the invasive behavior of cancer cells in a transwell (also known as Boyden chamber) invasion assay was evaluated, which determines the ability of cells to migrate through a proteinacious gel. This behavior is considered to be representative of cancer cell invasion through the basement membrane of the primary tumor environment. In this assay, treated cells are seeded on to the top of the matrigel-coated porous membrane, allowed to invade through the proteinacious gel onto the underside of the membrane, and then counted.

[2] = system: Normal cells (PBMC, HUVEC, and WI-38); experiment: Cancer cell selective growth inhibition (cancer cells vs normal cells); settings: 72 hr MTS
Protocol: […] Peripheral blood mononuclear cells (PBMCs) were voluntarily collected from a healthy laboratory worker by standard sterile phlebotomy techniques and isolated using Vacutainer CPT collection tubes (BD Biosciences—Bedford, Mass.). PBMCs were isolated freshly for each experiment. All DMEM and RPMI-1640 media was supplemented with 10% FBS (Atlanta Biologicals—Lawrenceville, Ga.) and 100 U/mL penicillin and streptomycin (Invitrogen). HUVEC (Human umbilical vein endothelial cells) were cultured in EGM-2 media with supplements provided in the manufacturers BulletKit (Lonza—Walersville, Md.). All cells were maintained at 37° C. and in a 5% CO2 atmosphere.
Growth Inhibition Assays: HeLa, MDA-MB-231, PC-3M, WI-38, and HUVEC cells were plated at 5,000 cells per well in 96 well plates and allowed to attach for 20 hr (8 hr for HeLa). The media was removed and 198 μL of fresh media was added to each well. […] PBMCs were isolated and plated at 100,000 per well in 96 well plates with a volume of 197 μL. They were allowed to settle in the media for 20 hr, at which point 1 μL of 1 mg/mL phytohemagglutinin (Sigma—St. Loius Mo.) in PBS was added to stimulate proliferation (final concentration of 5 μg/mL). […] Cell proliferation was measured at t=0 (time at start of treatment) and t=72 hr using MTS AQueous non-radioactive proliferation assay (Promega—Madison, Wis.). This assay utilizes the metabolic conversion of yellow tetrazolium to a purple formazan by live cells and the color change is proportional to the number of cells. […] The absorbance at 490 nm in each well was read with a Spectramax 250 plate reader (Molecular Devices—Sunnyvale, Calif.). […] Data were fit to one site dose response curves in order to obtain specific growth inhibitory concentrations and the relative standard errors of the mean for these concentrations were calculated by the XLfit4 software. Statistical significance (p value) for the selectivity and all subsequent assays was determined with the two tailed homoscedastic Student's t-test. […]

HeLa cells [3] = experiment: Perinucleolar compartment (PNC) prevalence reduction; settings: for PNC prevalence reduction at [GI50%]: [GI50%] for 72 hr
Protocol: Perinucleolar Compartment (PNC) Reduction: HeLa cells (PNC prevalence ˜85%) were plated 5,000/well in glass bottom 96 well plates and allowed to attach for 8 hr. The cells were then treated with compounds at the respective [GI50%] for 72 hr and [GI99%] for 20 hr for each compound (total media volume was 200 μL/well with 1% DMSO). After treatment cells were immunofluorescently stained as previously described, but with a Texas Red labeled secondary antibody (Jackson) instead of a FITC labeled secondary antibody. PNC prevalence (% of non-apoptotic/non-mitotic cells with 1 or more PNCs) was determined by scoring >200 cells per well with fluorescent microscope (60× objective) and images were acquired with the digital camera and image acquisition software previously mentioned. Scale bar=10 μm. Data are expressed as the average PNC prevalence (% control) of three individual experiments.
The PNC is a unique structural marker that it is only found in malignantly transformed cancer cells, irrespective of tissue origin, and indicates cells that are capable of metastasis. […] Previous studies indicate that the PNC likely conveys a functional metastatic advantage to cancer cells. The PNC prevalence (% of cells with one or more PNC) in human breast cancer positively correlates with the progression of the disease and is always near 100% in distant metastases. […] The PNC prevalence reduction was determined for amonafide and A1-A9 at the respective [GI50%] and [GI99%] doses in HeLa cells, which have a high PNC prevalence of ˜85%.

Row | SMILES | invasive behavior (% invading cells vs vehicle) (HeLa cells [1]) | cancer cell selective growth inhibition (selectivity) [2] | PNC prevalence reduction at [GI50%] (HeLa cells [3]) | PNC prevalence reduction at [GI99%] (HeLa cells [3]; [GI99%] for 20 hr)
1 | CN(C)CCN1C(=O)c2cccc3c(N)ccc(c23)C1=O [A1, 6-amino-2-[2-(dimethylamino)ethyl]-1H-benz[de]isoquinoline-1,3(2H)-dione] | did not significantly alter the invasive behavior of HeLa cells compared to the control | near identical to amonafide | able effectively reduce the PNC; also recorded: can significantly reduce PNC prevalence | 
2 | CN(C)CCN1C(=O)c2cccc3cc(N)cc(c23)C1=O [amonafide, reference compound] | did not significantly alter the invasive behavior of HeLa cells compared to the control | slightly more potent (but not with statistical significance) or equally potent at inhibiting the growth of cancer cells over normal cells | able effectively reduce the PNC; also recorded: can significantly reduce PNC prevalence | able to greatly reduce the PNC prevalence
